Measured values taken from patent US20190119282A1, “IMIDAZOPYRIDAZINES USEFUL AS INHIBITORS OF THE PAR-2 SIGNALING PATHWAY” (Vertex Pharmaceuticals Incorporated, priority 2013, published 2019).

Key:
[1] = tested on: UTP-stimulated Ca2+ response in HT-29 cells; assay: Ca FLIPR TETRA assay, ANTAGONIST mode, stimulation with 0.6 μM UTP; format: cell-based, human; settings: Homo sapiens; HT-29 cells, antagonist mode, stimulation with 0.6 μM UTP
Summary of the method: (§1)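 Cells plated overnight at 37 °C, 5% CO2 in 1% FBS medium; dye loading 45 min at 37 °C then 15 min r.t.; compound added from DMSO/HBSS dilution; first read for intrinsic Ca2+ activation; 30 min r.t. incubation; antagonist read after addition of the fixed activator (8 μM SLIGKV, 1 U/mL thrombin, 3.1 U/mL trypsin or 0.6 μM UTP).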

[2] = tested on: Thrombin-stimulated Ca2+ response in HT-29 cells; assay: Ca FLIPR TETRA assay, ANTAGONIST mode, stimulation with 1 U/mL Thrombin; format: cell-based, human; settings: Homo sapiens; HT-29 cells, antagonist mode, stimulation with 1 U/mL Thrombin
Summary of the method: as §1

[3] = target: T1, PAR2 (HT-29 cells, SLIGKV activation) (Homo sapiens, UniProt P55085); assay: Ca FLIPR TETRA assay, ANTAGONIST mode, stimulation with 8 μM SLIGKV; format: cell-based; settings: HT-29 cells, antagonist mode, stimulation with 8 μM SLIGKV
T1 construct: host or cells: HT-29 cells
T1 sequence (P55085 26-397): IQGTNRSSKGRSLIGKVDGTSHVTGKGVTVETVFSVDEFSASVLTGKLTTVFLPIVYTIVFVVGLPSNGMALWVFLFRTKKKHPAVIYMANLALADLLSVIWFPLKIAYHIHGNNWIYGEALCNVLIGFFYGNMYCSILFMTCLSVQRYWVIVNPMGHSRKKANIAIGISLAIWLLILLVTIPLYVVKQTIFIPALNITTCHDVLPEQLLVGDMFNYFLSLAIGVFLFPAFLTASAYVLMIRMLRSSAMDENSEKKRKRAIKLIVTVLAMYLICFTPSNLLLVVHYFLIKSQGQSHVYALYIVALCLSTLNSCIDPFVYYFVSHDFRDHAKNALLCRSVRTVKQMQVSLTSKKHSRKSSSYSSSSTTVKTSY
Summary of the method: as §1

[4] = target: T2, PAR2 (HT-29 cells, trypsin activation) (Homo sapiens, UniProt P55085); assay: Ca FLIPR TETRA assay, ANTAGONIST mode, stimulation with 3.1 U/mL trypsin; format: cell-based; settings: HT-29 cells, antagonist mode, stimulation with 3.1 U/mL trypsin
T2 construct: host or cells: HT-29 cells
T2 sequence (P55085 26-397): T1 sequence (P55085 26-397)
Summary of the method: as §1

IC50 [1] [nM]	IC50 [2] [nM]	IC50 [3] [nM]	IC50 [4] [nM]	SMILES
> 1000	> 1000	97	235	Cc1nc(C(=O)N2CCN(C(=O)c3cn4nc(-c5ccc(F)cc5)cc(C(C)(C)C)c4n3)C(C)(C)C2)nn1COP(=O)(O)O [Compound I-485]
2180	4150	1.7	2.1	CC(C)(C)c1cc(-c2ccc(F)c(Cl)c2)nn2cc(C(=O)N3CCN(C(=O)C4CC(C(=O)O)C4)CC3(C)C)nc12 (centres unmarked) [Compound I-486]
> 1000	> 1000	0.3	0.3	CC(C)(C)c1cc(-c2ccc(F)c(Cl)c2)nn2cc(C(=O)N3CCN(C(=O)[C@H]4CC[C@@H](C(=O)O)CC4)CC3(C)C)nc12 [Compound I-487]
> 1000	> 1000	4.2	4.2	CC(C)(C)c1cc(-c2ccc(F)c(Cl)c2)nn2cc(C(=O)N3CCN(C(=O)[C@H]4CC[C@H](C(=O)O)CC4)CC3(C)C)nc12 [Compound I-488]
4100	8600	1	0.9	CC(C)(C)c1cc(-c2ccc(Cl)cc2)nn2cc(C(=O)N3CCN(C(=O)C4CC(C(=O)O)C4)CC3(C)C)nc12 (centres unmarked) [Compound I-489]
> 1000	> 1000	0.1	0.2	CC(C)(C)c1cc(-c2ccc(Cl)cc2)nn2cc(C(=O)N3CCN(C(=O)[C@H]4CC[C@@H](C(=O)O)CC4)CC3(C)C)nc12 [Compound I-490]
> 1000	> 1000	2.4	3.2	CC(C)(C)c1cc(-c2ccc(Cl)cc2)nn2cc(C(=O)N3CCN(C(=O)[C@H]4CC[C@H](C(=O)O)CC4)CC3(C)C)nc12 [Compound I-491]
690	820	4	5.6	CC(C)(C)c1cc(-c2ccc(F)cc2)nn2cc(C(=O)N3CCN(C(=O)C4CC(C(=O)O)C4)CC3(C)C)nc12 (centres unmarked) [Compound I-492]
440	760	0.5	0.5	CC(C)(C)c1cc(-c2ccc(F)cc2)nn2cc(C(=O)N3CCN(C(=O)[C@H]4CC[C@@H](C(=O)O)CC4)CC3(C)C)nc12 [Compound I-493, (1S,4S)-4-(4-(8-(tert-butyl)-6-(4-fluorophenyl)imidazo[1,2-b]pyridazine-2-carbonyl)-3,3-dimethylpiperazine-1-carbonyl)cyclohexane-1-carboxylic acid]
> 1000	> 1000	12.4	13.9	CC(C)(C)c1cc(-c2ccc(F)cc2)nn2cc(C(=O)N3CCN(C(=O)[C@H]4CC[C@H](C(=O)O)CC4)CC3(C)C)nc12 [Compound I-494, (1R,4R)-4-(4-(8-(tert-butyl)-6-(4-fluorophenyl)imidazo[1,2-b]pyridazine-2-carbonyl)-3,3-dimethylpiperazine-1-carbonyl)cyclohexane-1-carboxylic acid]
11100	21500	4.1	5	CC(C)c1cc(-c2ccc(F)c(Cl)c2)nn2cc(C(=O)N3CCN(C(=O)[C@H]4CC[C@@H](C(=O)O)CC4)CC3(C)C)nc12 [Compound I-495]
> 1000	> 1000	55.3	101	CC(C)c1cc(-c2ccc(F)c(Cl)c2)nn2cc(C(=O)N3CCN(C(=O)[C@H]4CC[C@H](C(=O)O)CC4)CC3(C)C)nc12 [Compound I-496]
> 1000	> 1000	405	270	CC(C)c1cc(-c2ccc(F)c(Cl)c2)nn2cc(C(=O)N3CCNCC3(C)C)nc12 [Compound I-497]
> 1000	> 1000	5.6	7.4	CC(C)c1cc(-c2ccc(F)c(Cl)c2)nn2cc(C(=O)N3CCN(C(=O)[C@H]4C[C@@H](O)C4)CC3(C)C)nc12 [Compound I-498]
> 1000	> 1000	8.3	9.6	COC1CC(C(=O)N2CCN(C(=O)c3cn4nc(-c5ccc(F)c(Cl)c5)cc(C(C)C)c4n3)C(C)(C)C2)C1 (centres unmarked) [Compound I-499]
> 1000	> 1000	0.3	0.4	CC(C)c1cc(-c2ccc(F)c(Cl)c2)nn2cc(C(=O)N3CCN(C(=O)[C@H]4C[C@](O)(C(F)(F)F)C4)CC3(C)C)nc12 [Compound I-500]
> 1000	> 1000	51	59.5	CC(C)c1cc(-c2ccc(F)c(Cl)c2)nn2cc(C(=O)N3CCN(C(=O)[C@H]4C[C@H](C(=O)O)C4)CC3(C)C)nc12 [Compound I-501]
> 1000	> 1000	21	20	CC(C)c1cc(-c2ccc(F)c(Cl)c2)nn2cc(C(=O)N3CCN(C(=O)[C@H]4C[C@@H](C(=O)O)C4)CC3(C)C)nc12 [Compound I-502]

IC50 [1] [nM]	IC50 [2] [nM]	IC50 [3] [nM]	IC50 [4] [nM]	SMILES
> 1000	> 1000	3.9	4.6	COC(=O)CN1CCN(C(=O)c2cn3nc(-c4ccc(F)cc4)cc(C(C)(C)C)c3n2)C(C)(C)C1=O [Compound I-503]
460	> 1000	1.2	1.5	Cc1nc(C(=O)N2CCN(C(=O)c3cn4nc(-c5ccc(F)c(Br)c5)cc(C(C)(C)C)c4n3)C(C)(C)C2)n[nH]1 [Compound I-504]
> 1000	> 1000	12	23	CC(C)c1cc(-c2ccc(F)c(Cl)c2)nn2cc(C(=O)N3CCN(C(=O)[C@H]4C[C@H](O)C4)CC3(C)C)nc12 [Compound I-505]
> 1000	> 1000	107	163	CC(C)(C)c1cc(C2CCC(F)(F)CC2)nn2cc(C(=O)N3CCN(C(=O)[C@H]4CC[C@H](C(=O)O)CC4)CC3(C)C)nc12 [Compound I-506]
> 1000	> 1000	3.1	4.9	Cc1cc(-c2cc(C(C)C)c3nc(C(=O)N4CCNC(=O)C4(C)C)cn3n2)ccc1Cl [Compound I-507]
> 1000	> 1000	4.7	4.1	Cc1ccc(-c2cc(C(C)C)c3nc(C(=O)N4CCNC(=O)C4(C)C)cn3n2)cc1Cl [Compound I-508]
> 1000	> 1000	82.5	170	COC(=O)CC1(C)C(=O)NCCN1C(=O)c1cn2nc(-c3ccc(F)cc3)cc(C(C)(C)C)c2n1 (centres unmarked) [Compound I-509]
> 1000	> 1000	6.8	8.8	CC(C)(C)c1cc(-c2ccc(F)cc2)nn2cc(C(=O)N3CCOC(=O)C3(C)C)nc12 [Compound I-510]
> 1000	> 1000	23	87	CC(C)c1cc(-c2ccc(F)cc2)nn2cc(C(=O)N3CCOC(=O)C3(C)C)nc12 [Compound I-511]
> 1000	> 1000	23.5	53	CC(=O)N1CCN(C(=O)c2cn3nc(-c4ccc(F)cc4)cc(C(C)C)c3n2)C(C)(C)C1 [Compound I-512]
> 1000	> 1000	1.8	3	CC(=O)N1CCN(C(=O)c2cn3nc(-c4ccc(F)cc4)cc(C(C)(C)C)c3n2)C(C)(C)C1 [Compound I-513]
> 1000	> 1000	160	315	CC1(C)C(=O)OCCN1C(=O)c1cn2nc(-c3ccc(F)cc3)cc(C(F)(F)F)c2n1 [Compound I-514]
> 1000	> 1000	62.5	110	CC(C)(C)c1cc(C2CCC(F)(F)CC2)nn2cc(C(=O)N3CCN(C(=O)[C@H]4C[C@H](C(=O)O)C4)CC3(C)C)nc12 [Compound I-515]
> 1000	> 1000	39.5	92	CC(C)(C)c1cc(C2CCC(F)(F)CC2)nn2cc(C(=O)N3CCN(C(=O)[C@H]4C[C@@H](C(=O)O)C4)CC3(C)C)nc12 [Compound I-516]
> 1000	> 1000	2.7	2.1	CC(C)(C)c1cc(-c2ccc(Br)cc2)nn2cc(C(=O)N3CCNC(=O)C3(C)C)nc12 [Compound I-517]
> 1000	> 1000	57	68.5	CC(C)(C)c1cc(-c2ccc(F)cc2)nn2cc(C(=O)N3CCN(CC(=O)O)C(=O)C3(C)C)nc12 [Compound I-518]
> 1000	> 1000	0.4	0.4	Cc1n[nH]c(C(=O)N2CCN(C(=O)c3cn4nc(-c5ccc(Br)cc5)cc(C(C)(C)C)c4n3)C(C)(C)C2)n1 [Compound I-519]
